Measured values taken from US4374284A, “Antiulcer, antiinflammatory, and antiallergic agent comprising as the main ingredient olean-12-ene-3β, 30-diol which is devoid of side effects of glycyrrhetinic acid and a new process for preparation of olean-12-ene-3β, 30-diol” (Minophagen Pharmaceutical Company, priority 1980, dated 1983).
Entries after “also recorded” stand apart in the source; their conditions may differ.

Columns and labels:
[1] = acute toxicity test; type: in vivo, male mice (ddY); conditions: mouse, in vivo
Experimental: (§1) To male mice (ddY) weighing 24 g-26 g, 10 mice in one group, compounds to be tested (suspended in Tween 80) in various doses of the ratio (1, 2) were administered (orally and intraperitoneally), and LD50 was determined by the Litchfield-Wilcoxon method.

[2] = system: mice; test: acute toxicity test; type: in vivo, male mice (ddY); conditions: oral and intraperitoneal
Experimental: as §1

[3] = system: ulcers induced by acetic acid; test: experiments with rats on ulcers induced by acetic acid (chronic gastric ulcers); type: in vivo; conditions: for ulcer value (major axis × minor axis): p.o., 14 days
Experimental: (c) Experiments with rats on ulcers induced by acetic acid
Chronic gastric ulcers were induced by penetrating 100% acetic acid serosally into gastric wall for 60 sec. using a small cup (6 mm in diameter, 5 mm in height).
From the next day, compounds to be tested were administered orally twice a day (morning and evening) for 14 days. Autopsies were carried out 15 days after the administrations.

[4] = system: rat paw edema induced with carrageenin; test: test on rat paw edema induced with carrageenin (antiinflammatory); type: in vivo, male Wister rats
Experimental: (a) Test on rat paw induced with carrageenin
To the plantar side of the hind paw of male Wister rats was administered subcutaneously 0.05 ml/rat of 10% saline solution of carrageenin. Edema after three hours was measured by the volume method and the rate of inhibition was assayed. Compounds were administered orally 30 minutes before administration of carrageenin. [formula]

[5] = system: aspirin-induced ulcer; test: rat experiment on aspirin-induced ulcer, oral (experiment b); type: in vivo, male Wister rats
Experimental: (b) Experimental procedures:
Male Wister rats weighing 120-140 g were made to fast for 24 hours, and compounds to be tested were administered orally. After 5 hours, the rats were killed by a blow. The stomach was excised and observed for the presence of ulcer.
The size of ulcer was measured by ulcer index (ulcer length×width mm^2).

[6] = system: PCA reaction (type I allergy); test: PCA test (type I allergy); type: in vivo, male Wister rats
Experimental: (a) PCA--Test (type I allergy)
Male Wister rats weighing […] were shaved at the abdomen. After 24 hours, 0.05 ml of serum diluted with saline (Blood samples were diluted to 1/32 and 1/64; The blood samples were collected from rats 3 weeks after administration of pertussis vaccine and egg albumin.) was injected intradermally at the abdomen. After 48 hours, compounds to be tested were administered intraperitoneally. Two hours thereafter, 0.5 ml./100 g of a solution of antigen and pigment (a solution of 0.4% egg albumin and 0.5% Pontamine sky blue) was administered. After 45 minutes, the rats were decapitated and bled, and the diameter of the pigment-leaking site under the skin was measured to obtain the area.

Compound: CC1(C)[C@@H](O)CC[C@]2(C)[C@H]3CC=C4[C@@H]5C[C@@](C)(CO)CC[C@]5(C)CC[C@@]4(C)[C@]3(C)CC[C@@H]12 [I, olean-12-ene-3β, 30-diol]
- LD50 ([1]; ip, intraperitoneal administration): > 4000 mg/kg
- LD50 ([1]; oral administration): > 5000 mg/kg
- acute toxicity (in words) [2]: very low toxicity
- ulcer value (major axis × minor axis) ([3]; Experiment 1, 200 mg/kg (half dose twice/day), control 12.0 ± 2.3): 10.1 ± 3.4
- ulcer value (major axis × minor axis) ([3]; Experiment 1, 400 mg/kg (half dose twice/day), control 12.0 ± 2.3): 7.5 ± 0.7
- ulcer value (major axis × minor axis) ([3]; Experiment 2, 200 mg/kg (half dose twice/day), control 8.9 ± 1.7): 6.7 ± 2.2
- ulcer value (major axis × minor axis) ([3]; Experiment 2, 400 mg/kg (half dose twice/day), control 8.9 ± 1.7): 5.2 ± 1.2
- ulcer value (major axis × minor axis) ([3]; Total, 200 mg/kg (half dose twice/day), control 10.4 ± 1.4): 8.4 ± 2.0
- ulcer value (major axis × minor axis) ([3]; Total, 400 mg/kg (half dose twice/day), control 10.4 ± 1.4, * p < 0.05): 6.2 ± 0.8
- inhibitory effect on acetic acid ulcer (in words) ([3]; dose of 200 mg): showed an inhibitory effect to some extent
- healing rate ([3]; dose of 400 mg): more than 40%
- inhibitory effect on acetic acid ulcer (in words) ([3]; dose of 400 mg): clearly showed inhibitory effects
- edema % ([4]; 200 mg/kg p.o., after three hours, control 71 ± 6): 52 ± 5%
- inhibition at 200 mg/kg ([4]; Rattus norvegicus, po, 3 h, edema, 200 mg/kg p.o., after three hours): 26.8%
- inhibitory activity against inflammation (in words) ([4]; rat, in vivo): has an inhibitory activity against inflammation, but the activity is inferior to that of aspirin; also recorded: will not affect the inhibitory activity of aspirin
- ulcer index (ulcer length×width) ([5]; 200 mg/kg p.o., after 5 hours, control 0): 0 mm^2
- effect on ulcer, experiment (b) (in words) ([5]; rat, in vivo): did not produce ulcer and inhibited the development of ulcer induced by aspirin
- area ([6]; serum 1/32, 100 mg/kg intraperitoneally, control 35.2 ± 5.3): 22.3 ± 9.1 mm^2
- area ([6]; serum 1/64, 100 mg/kg intraperitoneally, control 16.4 ± 2.8): 6.8 ± 4.6 mm^2
- area ([6]; serum 1/64, 200 mg/kg intraperitoneally, control 16.4 ± 2.8): 6.3 ± 4.8 mm^2
- PCA activity compared with (II) (in words) ([6]; serum diluted to 1/64): a little stronger than that of (II)
